Results as given in patent US11427556B2, “Urea derivatives as inhibitors of ASK1” (Hepagene Therapeutics (HK) Limited, priority 2017, dated 2022).

Each compound was assayed against T1, Recombinant human ASK1 kinase (Homo sapiens, UniProt Q99683) (assay: ASK1 kinase HTRF assay (HTRF KinEASE-STK, phosphorylation of biotinylated peptide substrate)). Conditions: not given.
T1 construct: purchased Invitrogen Inc
T1 sequence (Q99683 1-1374): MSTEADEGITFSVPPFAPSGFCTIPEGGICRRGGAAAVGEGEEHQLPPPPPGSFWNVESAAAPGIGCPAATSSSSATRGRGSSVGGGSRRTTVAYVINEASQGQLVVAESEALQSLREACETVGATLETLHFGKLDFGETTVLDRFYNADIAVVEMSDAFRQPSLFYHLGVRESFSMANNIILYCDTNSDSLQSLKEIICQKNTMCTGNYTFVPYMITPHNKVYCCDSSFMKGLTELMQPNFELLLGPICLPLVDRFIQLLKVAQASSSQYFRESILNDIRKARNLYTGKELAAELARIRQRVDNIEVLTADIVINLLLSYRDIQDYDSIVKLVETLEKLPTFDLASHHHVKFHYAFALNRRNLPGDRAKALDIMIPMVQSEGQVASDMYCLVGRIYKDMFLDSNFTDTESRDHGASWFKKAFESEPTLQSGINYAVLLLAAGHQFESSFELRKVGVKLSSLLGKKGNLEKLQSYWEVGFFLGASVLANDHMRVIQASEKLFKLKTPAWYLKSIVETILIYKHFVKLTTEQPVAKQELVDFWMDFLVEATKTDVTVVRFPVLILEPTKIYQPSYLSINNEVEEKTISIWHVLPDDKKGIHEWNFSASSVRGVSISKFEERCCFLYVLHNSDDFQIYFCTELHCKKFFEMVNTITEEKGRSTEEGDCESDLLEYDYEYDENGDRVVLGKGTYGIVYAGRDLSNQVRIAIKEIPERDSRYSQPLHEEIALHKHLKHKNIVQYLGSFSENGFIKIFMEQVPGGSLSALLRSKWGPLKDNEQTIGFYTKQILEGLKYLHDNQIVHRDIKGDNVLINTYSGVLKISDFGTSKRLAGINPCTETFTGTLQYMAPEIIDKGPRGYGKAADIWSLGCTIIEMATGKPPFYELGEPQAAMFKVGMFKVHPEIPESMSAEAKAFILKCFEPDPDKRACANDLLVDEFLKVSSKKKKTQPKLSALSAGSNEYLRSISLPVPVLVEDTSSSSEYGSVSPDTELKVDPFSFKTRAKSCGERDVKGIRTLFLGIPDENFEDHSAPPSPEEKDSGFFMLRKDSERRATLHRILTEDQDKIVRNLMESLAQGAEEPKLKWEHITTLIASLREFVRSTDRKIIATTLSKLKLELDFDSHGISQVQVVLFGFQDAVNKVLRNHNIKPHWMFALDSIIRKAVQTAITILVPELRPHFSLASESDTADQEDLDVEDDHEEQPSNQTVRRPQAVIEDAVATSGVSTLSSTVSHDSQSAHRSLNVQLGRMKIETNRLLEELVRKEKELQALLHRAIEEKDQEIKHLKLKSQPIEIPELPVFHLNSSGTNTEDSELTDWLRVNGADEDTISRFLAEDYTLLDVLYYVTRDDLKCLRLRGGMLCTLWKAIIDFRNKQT
Format: biochemical
Procedure: Reagents: Recombinant human ASK1 kinase was from Invitrogen Inc. HTRF KinEASETM-STK S3 kit was obtained from Cisbio (Bedford, Mass.). All other reagents were of the highest grade commercially available.
Assay: The assay measures the phosphorylation level of a biotinylatd peptide substrate by the ASK1 kinase using HTRF detection. ASK1 kinase assay is based on HTRF KinEASETM-STK manual from Cisbio. Test compound, 1 uM STK-substrate-biotin, 3 nM of ASK1 kinase are incubated with 1*Kinase buffer with 5 mM MgCl2 and 1 mM DTT.

Question: Which EC50 does the source give for `CC(C)n1cnnc1-c1cccc(NC(=O)Nc2cc(C(=O)N3CCC(=O)CC3)ccn2)n1` [Compound I-134] here?
Answer: < 0.05 µM

Question: `CC(C)n1cnnc1-c1cccc(NC(=O)Nc2ccccn2)n1` [Compound I-025] was tested. Which EC50 did it give?
Answer: < 0.05 µM

Question: How did the EC50 turn out when `C[C@H](CO)n1cnnc1-c1cccc(NC(=O)Nc2cc(C(=O)N3CCOCC3)ccn2)n1` [Compound I-133] was run?
Answer: < 0.05 µM

Question: With `C[C@H](CO)n1cnnc1-c1cccc(NC(=O)Nc2cc(C(=O)N3CCNCC3)ccn2)n1` [Compound I-140] as the compound, how does the EC50 read?
Answer: < 0.05 µM

Question: `CC(C)n1cnnc1-c1cccc(NC(=O)Nc2cc(C(=O)N3CCOCC3)ccn2)n1` [Compound I-132] was tested. Which EC50 did it give?
Answer: < 0.05 µM

Same assay, conditions: 3 nM ASK1 kinase, 1 uM STK-substrate-biotin, HTRF detection; read-out: EC50

Question: Which EC50 does the source give for `CC(C)n1cnnc1-c1cccc(NC(=O)Nc2cc(Cl)ccn2)n1` [Compound I-181] here?
Answer: < 0.05 µM

Question: Which EC50 does the source give for `CC(C)n1cnnc1-c1cccc(NC(=O)Nc2cc(C(=O)O)ccn2)n1` [Compound I-202, 2-(3-(6-(4-Isopropyl-4H-1,2,4-triazol-3-yl)pyridin-2-yl)ureido)isonicotinic acid] here?
Answer: < 0.05 µM

Question: Which EC50 does the source give for `CC(=O)OC[C@@H](C)n1cnnc1-c1cccc(NC(=O)Nc2cc(C(=O)N3CCCCC3)ccn2)n1` [Compound I-012, (2R)-2-[3-[6-([[4-(Piperidine-1-carbonyl)pyridin-2-yl]carbamoyl]amino)pyridin-2-yl]-4H-1,2,4-triazol-4-yl]propyl acetate] here?
Answer: 0.05 to 0.5 µM

Question: With `CC(C)N1CCN(c2ccnc(NC(=O)Nc3cccc(-c4nncn4C(C)C)n3)c2)CC1` [Compound I-098] as the compound, how does the EC50 read?
Answer: < 0.05 µM

Question: `CNc1ccnc(NC(=O)Nc2cccc(-c3nncn3C(C)C)n2)c1` [Compound I-190] was tested. Which EC50 did it give?
Answer: < 0.05 µM

Question: With `C[C@H](CO)n1cnnc1-c1cccc(NC(=O)Nc2cc(N3CCC(N4CCOCC4)CC3)ccn2)n1` [Compound I-107] as the compound, how does the EC50 read?
Answer: < 0.05 µM

Question: `CC(=O)N1CCN(c2ccnc(NC(=O)Nc3cccc(-c4nncn4C(C)C)n3)c2)CC1` [Compound I-104] was tested. Which EC50 did it give?
Answer: < 0.05 µM

Question: `Cc1ccc(N(C)C(=O)Nc2cccc(-c3nncn3C(C)C)n2)c(F)c1` [II-01, 1-(2-Fluoro-4-methylphenyl)-3-(6-(4-isopropyl-4H-1,2,4-triazol-3-yl)pyridin-2-yl)-1-methylurea] was tested. Which EC50 did it give?
Answer: 0.5 to 5 µM

Question: For `Cc1ccc(NC(=O)Nc2cccc(-c3nncn3C(C)C)n2)nc1` [Compound I-001, 1-(6-(4-Isopropyl-4H-1,2,4-triazol-3-yl)pyridin-2-yl)-3-(5-methylpyridin-2-yl) urea], which EC50 is on record?
Answer: < 0.05 µM

Question: For `CC(C)n1cnnc1-c1cccc(NC(=O)Nc2cc(C(=O)N3CCC(N4CCOCC4)CC3)ccn2)n1` [Compound I-130], which EC50 is on record?
Answer: < 0.05 µM

Question: `CC(C)n1cnnc1-c1cccc(NC(=O)Nc2cc(C(=O)Nc3ccc(-c4ccccc4)cc3)ccn2)n1` [Compound I-155] was tested. Which EC50 did it give?
Answer: < 0.05 µM

Question: `CC(C)n1cnnc1-c1cccc(NC(=O)Nc2cccc(C#N)n2)n1` [Compound I-200] was tested. Which EC50 did it give?
Answer: < 0.05 µM

Question: Which EC50 does the source give for `CC(C)n1cnnc1-c1cccc(N2CCN(c3ccc(F)cn3)C2=O)n1` [Compound V-02] here?
Answer: < 0.05 µM

Question: With `CC(C)n1cnnc1-c1cccc(NC(=O)Nc2ccc(C(N)=O)cn2)n1` [Compound I-009, 6-(3-(6-(4-Isopropyl-4H-1,2,4-triazol-3-yl)pyridin-2-yl)ureido)nicotinamide] as the compound, how does the EC50 read?
Answer: < 0.05 µM

Question: How did the EC50 turn out when `CC(C)n1cnnc1-c1cccc(NC(=O)Nc2ccc(-c3cccnc3)cn2)n1` [Compound I-089] was run?
Answer: < 0.05 µM

Question: `C[C@H](CO)n1cnnc1-c1cccc(NC(=O)Nc2cc(C(=O)Nc3ccccc3)ccn2)n1` [Compound I-153] was tested. Which EC50 did it give?
Answer: < 0.05 µM

Question: Which EC50 does the source give for `CC(C)n1cnnc1-c1cccc(NC(=O)Nc2cc(C3CCCC3)ccn2)n1` [Compound I-048] here?
Answer: < 0.05 µM

Question: For `CC(C)n1cnnc1-c1cccc(NC(=O)Nc2cc(C3CCOCC3)ccn2)n1` [Compound I-091], which EC50 is on record?
Answer: < 0.05 µM

Question: How did the EC50 turn out when `CC(C)n1cnnc1-c1cccc(NC(=O)Nc2ccc(-n3cnc(C4CC4)c3)cn2)n1` [Compound I-169] was run?
Answer: < 0.05 µM

Question: How did the EC50 turn out when `Cc1ccc(-n2ccn(-c3cccc(-c4nncn4C(C)C)n3)c2=O)nc1` [III-05] was run?
Answer: < 0.05 µM

Question: For `COc1ccnc(NC(=O)Nc2cccc(-c3nncn3[C@@H](C)CO)n2)c1` [Compound I-054], which EC50 is on record?
Answer: 0.05 to 0.5 µM

Question: Which EC50 does the source give for `COc1ccnc(NC(=O)Nc2cccc(-c3nncn3C(C)C)n2)c1` [Compound I-052] here?
Answer: < 0.05 µM

Question: With `CC(C)n1cnnc1-c1cccc(NC(=O)Nc2cc(C(=O)Nc3ccc(C(C)(C)C)cc3)ccn2)n1` [Compound I-160] as the compound, how does the EC50 read?
Answer: < 0.05 µM

Question: For `CCc1ccnc(NC(=O)Nc2cccc(-c3nncn3C(C)C)n2)c1` [Compound I-042], which EC50 is on record?
Answer: < 0.05 µM

Question: How did the EC50 turn out when `CC(C)n1cnnc1-c1cccc(NC(=O)Nc2cc(N3CCN(S(C)(=O)=O)CC3)ccn2)n1` [Compound I-102] was run?
Answer: < 0.05 µM

Question: How did the EC50 turn out when `CC(C)n1cnnc1-c1cccc(NC(=O)Nc2cccc(Cl)n2)n1` [Compound I-185] was run?
Answer: < 0.05 µM

Question: `CC(C)n1cnnc1-c1cccc(NC(=O)Nc2ccc(C3CC3)cn2)n1` [Compound I-046] was tested. Which EC50 did it give?
Answer: < 0.05 µM

Question: For `CC(C)n1cnnc1-c1cccc(NC(=O)Nc2cc(C(=O)N3CC[C@@H]4CCCC[C@H]4C3)ccn2)n1` [Compound I-127], which EC50 is on record?
Answer: < 0.05 µM

Question: For `C[C@H](CO)n1cnnc1-c1cccc(N2CCN(c3cc4ccccc4cn3)C2=O)n1` [Compound V-04], which EC50 is on record?
Answer: < 0.05 µM

Question: For `CC(C)n1cnnc1-c1cccc(N2CCN(c3ccc(-c4ccc(F)cc4)cn3)C2=O)n1` [Compound V-06], which EC50 is on record?
Answer: < 0.05 µM

Question: With `C[C@H](CO)n1cnnc1-c1cccc(NC(=O)Nc2cc(C(=O)N3CCC[C@@H]4CCCC[C@H]43)ccn2)n1` [Compound I-126] as the compound, how does the EC50 read?
Answer: < 0.05 µM

Question: Which EC50 does the source give for `CC(C)n1cnnc1-c1cccc(NC(=O)Nc2ccc(N(C)C)cn2)n1` [Compound I-191] here?
Answer: < 0.05 µM

Question: With `CC(C)n1cnnc1-c1cccc(NC(=O)Nc2cc(C(=O)NC3CCCCC3)ccn2)n1` [Compound I-151] as the compound, how does the EC50 read?
Answer: < 0.05 µM

Question: With `CC(C)n1cnnc1-c1cccc(NC(=O)Nc2cccc(N3CCCC3)n2)n1` [Compound I-166] as the compound, how does the EC50 read?
Answer: 0.05 to 0.5 µM

Question: How did the EC50 turn out when `C[C@H](CO)n1cnnc1-c1cccc(N2CCN(c3ccc(F)cn3)C2=O)n1` [Compound V-03] was run?
Answer: < 0.05 µM

Question: `CC(C)n1cnnc1-c1cccc(NC(=O)Nc2ccc(-n3ccnc3)cn2)n1` [Compound I-168] was tested. Which EC50 did it give?
Answer: 0.05 to 0.5 µM

Question: How did the EC50 turn out when `CC(C)n1cnnc1-c1cccc(NC(=O)Nc2cc(C(=O)N3CCC(C)(C)CC3)ccn2)n1` [Compound I-117] was run?
Answer: < 0.05 µM

Question: For `CC(=O)OC[C@@H](C)n1cnnc1-c1cccc(NC(=O)Nc2cc3ccccc3cn2)n1` [Compound I-061], which EC50 is on record?
Answer: 0.05 to 0.5 µM

Question: Which EC50 does the source give for `CC(C)n1cnnc1-c1cccc(NC(=O)Nc2ncccc2F)n1` [Compound I-186] here?
Answer: < 0.05 µM

Question: With `CC(C)[C@H](N)C(=O)OC[C@@H](C)n1cnnc1-c1cccc(NC(=O)Nc2cc(C(=O)N3CCCCC3)ccn2)n1` [Compound I-013, (2R)-2-[3-[6-([[4-(Piperidine-1-carbonyl)pyridin-2-yl]carbamoyl]amino)pyridin-2-yl]-4H-1,2,4-triazol-4-yl]propyl (2S)-2-amino-3-methylbutanoate] as the compound, how does the EC50 read?
Answer: < 0.05 µM

Question: `CC(C)n1cnnc1-c1cccc(NC(=O)Nc2cc(-c3cccnc3)ccn2)n1` [Compound I-086] was tested. Which EC50 did it give?
Answer: < 0.05 µM

Question: How did the EC50 turn out when `C[C@H](CO)n1cnnc1-c1cccc(NC(=O)Nc2cc(Cl)ccn2)n1` [Compound I-182] was run?
Answer: < 0.05 µM

Question: `CC(C)n1cnnc1-c1cccc(NC(=O)Nc2ccc(N3CCNCC3)cn2)n1` [Compound I-097] was tested. Which EC50 did it give?
Answer: < 0.05 µM

Question: With `CC(C)n1cnnc1-c1cccc(NC(=O)Nc2cc(C3CCCCC3)ccn2)n1` [Compound I-049] as the compound, how does the EC50 read?
Answer: < 0.05 µM

Question: `CC(C)n1cnnc1-c1cccc(N2CCN(c3ccc(N4CCOC[C@@H]4C)cn3)C2=O)n1` [Compound V-14] was tested. Which EC50 did it give?
Answer: < 0.05 µM

Question: With `CC1(n2cnnc2-c2cccc(NC(=O)Nc3cc(C(=O)N4CCCCC4)ccn3)n2)CC1` [Compound I-115] as the compound, how does the EC50 read?
Answer: < 0.05 µM

Question: For `CC(C)n1cnnc1-c1cccc(NC(=O)Nc2cc(C(N)=O)ccn2)n1` [Compound I-108], which EC50 is on record?
Answer: < 0.05 µM

Question: Which EC50 does the source give for `CC(C)n1cnnc1-c1cccc(NC(=O)Nc2cc(C(=O)N3CCCC4CCCCC43)ccn2)n1` (centres unmarked) [Compound I-125] here?
Answer: < 0.05 µM
